Experimental data published in the supplement of paper PMC10331698.
± gives the standard deviation of the averaged measurements.

Experiments:
Assay in all cases: level (log10 ratio to DMSO vehicle control); higher = higher biomarker level / cell amount than vehicle control
[1] = compound: O=C(O)C(F)(F)OC(F)(F)C(F)(F)OC(F)(F)C(F)(F)OC(F)(F)C(F)(F)C(F)(F)C(F)(F)F [Perfluoro-3,6,9-trioxatridecanoic acid] (in DMSO); conditions: 6700 nM
Protocol: (§1)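 BioMAP Diversity Plus panel of 12 human primary cell co-culture systems (3C, 4H, LPS, SAg, BT, BF4T, BE3C, CASM3C, HDF3CGF, KF3CT, MyoF, Mphg). Compounds were added 1 h before stimulation and left for 24 h (MyoF 48 h; BT 72 h for soluble read-outs or 6 d for IgG). Biomarkers were read by ELISA, cytotoxicity by SRB, PBMC viability and proliferation by Alamar Blue. Each well value was divided by the mean of 8 DMSO control wells on the same plate and log10 transformed; duplicate blinded samples were tested at 4 concentrations.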

[2] = compound: O=C(O)CCC(F)(C(F)(F)F)C(F)(F)F [4,4-bis(Trifluoromethyl)-4-fluoropropanoic acid] (in DMSO)
Protocol: as §1

[3] = compound: CO[Si](C)(CCC(F)(F)C(F)(F)C(F)(F)C(F)(F)C(F)(F)C(F)(F)F)OC [Dimethoxymethyl((perfluorohexyl)ethyl)silane] (in DMSO)
Protocol: as §1

[4] = compound: O=C(O)C(F)(F)C(F)(F)C(F)(F)C(F)(F)C(=O)O [Octafluoroadipic acid] (in DMSO)
Protocol: as §1

[5] = compound: OCC(F)(F)OC(F)(F)C(F)(F)OC(F)(F)C(F)(F)OC(F)(F)CO [1H,1H,11H,11H-Perfluorotetraethylene glycol] (in DMSO)
Protocol: as §1

[6] = compound: O=S(=O)(O)C(F)(F)C(F)(F)OC(F)(F)C(F)(F)F [Perfluoro(2-ethoxyethane)sulfonic acid] (in DMSO)
Protocol: as §1

[7] = compound: CN(C(=O)C(F)(F)C(F)(F)C(F)(F)F)[Si](C)(C)C [N-Methyl-N-trimethylsilylheptafluorobutyramide] (in DMSO)
Protocol: as §1

Test System | level (log10) [1] | level (log10) ([2]; 6700 nM) | level (log10) ([2]; 20000 nM) | level (log10) ([2]; 60000 nM) | level (log10) ([3]; 6700 nM) | level (log10) ([3]; 20000 nM) | level (log10) ([4]; 6700 nM) | level (log10) ([4]; 20000 nM) | level (log10) ([4]; 60000 nM) | level (log10) ([5]; 6700 nM) | level (log10) ([5]; 20000 nM) | level (log10) ([5]; 60000 nM) | level (log10) ([6]; 6700 nM) | level (log10) ([6]; 20000 nM) | level (log10) ([6]; 60000 nM) | level (log10) ([7]; 6700 nM) | level (log10) ([7]; 20000 nM) | level (log10) ([7]; 60000 nM)
lMphg:CXCL8/IL-8 | 0.126 ± 0.016 | 0.017 ± 0.059 | 0.032 ± 0.024 | 0.01 ± 0.076 | -0.0095 ± 0.029 | 0.0025 ± 0.015 | 0.009 ± 0.0099 | -0.0015 ± 0.028 | 0.0495 ± 0.091 | -0.022 ± 0.017 | -0.034 ± 0.017 | -0.0265 ± 0.032 | 0.0055 ± 0.005 | 0.034 ± 0.018 | 0.118 ± 0.016 | -0.0215 ± 0.0078 | 0.009 ± 0.027 | 0.0155 ± 0.025
lMphg:IL-1alpha | 0.013 ± 0.025 | 0.0125 ± 0.07 | 0.022 ± 0.011 | 0.0125 ± 0.026 | -0.032 ± 0.0014 | 0.0125 ± 0.073 | -0.0495 ± 0.013 | -0.041 ± 0.027 | 0.039 ± 0.031 | 0.012 ± 0.0057 | 0.0065 ± 0.04 | 0.0605 ± 0.053 | 0.006 ± 0.011 | 0.012 ± 0.0071 | 0.0335 ± 0.026 | -0.038 ± 0.0014 | -0.034 ± 0.0071 | 0.017 ± 0.052
lMphg:M-CSF | 0.023 ± 0.0071 | -0.0115 ± 0.043 | -0.0135 ± 0.032 | -0.0165 ± 0.019 | -0.0075 ± 0.036 | 0.0135 ± 0.025 | -0.012 ± 0.0071 | -0.0255 ± 0.0035 | -0.006 ± 0.017 | -0.0215 ± 0.0021 | -0.0385 ± 0.0078 | -0.0575 ± 0.044 | 0.0025 ± 0.0092 | -0.011 ± 0.0028 | -0.011 ± 0.0071 | -0.033 ± 0.014 | -0.018 ± 0.025 | -0.0045 ± 0.0064
lMphg:SRB | -0.014 ± 0.0085 | -0.0025 ± 0.0064 | -0.0005 ± 0.0064 | 0.0065 ± 0.0021 | -0.0025 ± 0.0092 | -0.0045 ± 0.00071 | -0.023 ± 0.017 | -0.0045 ± 0.00071 | 0.001 ± 0.023 | -0.009 ± 0.011 | -0.024 ± 0.0042 | -0.047 ± 0.0099 | -0.001 ± 0.0014 | 0 ± 0.013 | -0.021 ± 0.0071 | -0.0015 ± 0.005 | 0 ± 0.0099 | 0.003 ± 0.0014
lMphg:SRB-Mphg | 0.0035 ± 0.0035 | 0.0125 ± 0.0021 | -0.0025 ± 0.012 | 0.002 ± 0.016 | 0.0195 ± 0.0021 | 0.0295 ± 0.0021 | -0.026 ± 0.016 | 0.0135 ± 0.022 | 0.0265 ± 0.029 | 0 ± 0.0042 | -0.011 ± 0.0028 | -0.077 ± 0.0028 | 0.0125 ± 0.005 | 0.0155 ± 0.015 | -0.0045 ± 0.025 | 0.0035 ± 0.00071 | 0.002 ± 0.031 | 0.015 ± 0.02
lMphg:sIL-10 | -0.0585 ± 0.00071 | -0.0325 ± 0.005 | -0.062 ± 0.075 | -0.003 ± 0.12 | -0.0465 ± 0.013 | -0.085 ± 0.014 | -0.067 ± 0.014 | -0.0425 ± 0.077 | -0.0425 ± 0.046 | -0.0385 ± 0.056 | -0.0965 ± 0.066 | -0.306 ± 0.025 | 0.0105 ± 0.13 | -0.0625 ± 0.005 | -0.818 ± 0.028 | -0.006 ± 0.061 | -0.135 ± 0.1 | -0.0905 ± 0.043
